Counter-ions that a name gives are not always drawn.
melting point | SMILES
232 °C (dec.) | O=C(O)CC(c1ccccc1)c1c[nH]c2cc(OCCCNc3ccccn3)ccc12 (centres unmarked) (as salt: trifluoroacetate) [compound 8, 3-Phenyl-3-{6-[3-(pyridin-2-ylamino)propoxy]indol-3-yl}propionic acid]
137 °C | O=C(O)C[C@@H](c1ccccc1)c1c[nH]c2cc(OCCCNc3ccccn3)ccc12 (as salt: salt) [compound 46, (3S)-3-Phenyl-3-{6-[3-(pyridin-2-ylamino)propoxy]indol-3-yl}propionic acid]
